According to patent EP0330283A1, “Novel 5,6-diphenyl-1,2-dihydro-3H-pyrrolo[1,2-a]pyrrole-1-carboxylic acid derivatives” (HISAMITSU PHARMACEUTICAL CO., INC., priority 1988, dated 1989):

Assays:
[1] = test system: carrageenin-induced paw edema; experiment: Inhibitory actions on carrageenin-induced paw edema in rats; format: in vivo; conditions: Rattus norvegicus, po, 60 min before carrageenin, male Wistar rats, 3 hours after induction, vs control group, read-out: Inhibition rate; for inhibition in vivo at 30 mg/kg: 30 mg/kg orally; for inhibition in vivo at 15 mg/kg: 15 mg/kg orally
Description: Using, as test animals, male rats of Wistar strain each weighing approximately 150g, 0.1 ml of 1% x-carrageenin was subcutaneously injected into the paw of each rat to induce the reaction. Since then, the volume of paw edema was measured with the lapse of time. Each compound indicated in the following Table was orally administered to the rats 60 minutes before the induction of the reaction. As shown in the following Table, the results were expressed in terms of inhibition rate in comparison with those in control group 3 hours after the induction of the reaction.

[2] = test system: writhing induced by acetic acid; experiment: Inhibitory actions on the writhing induced by acetic acid in mice; format: in vivo; conditions: 30 mg/kg orally, 30 min before 0.6% acetic acid; male ddY mice; number of writhing vs control group
Description: As test animals, there were provided groups consisting of 7-9 male ddY strain mice weighing 20-24g. Each of the compounds indicated in the following table was orally administered to the mice of one group. Thirty minutes later, 0.6% acetic acid was abdominally administered at a dose of 0.1ml/10g. Counting of the number of writhing was started 5 minutes later than the administration of the acetic acid and continued for 10 minutes. The inhibition rates were determined by comparing the number of writhing of the test group with that of the control group and were shown in the following Table.

[3] = test system: collagen aggregation; experiment: Inhibitory actions on blood platelet aggregation induced by collagen (Born's nephelometry, platelet rich plasma); format: cell-based; conditions: Oryctolagus cuniculus, collagen (10µg/ml), rabbit PRP, read-out: Inhibiting rate; for inhibition at 10 µM: final concentration 10 μM; for inhibition at 30 µM: final concentration 30 μM
Description: (§1) Nine (9) ml of blood were drawn from the concha artery of a rabbit into a syringe containing therein 1 ml of a 3.2% solution of sodium citrate, after which the whole mass was centrifuged at 1100 rpm for 10 minutes to collect platelet rich plasma (PRP). The blood from which the PRP had been collected was again centrifuged at 3000 rpm for 5 minutes to collect platelet poor plasma (PPP). The PRP was adjusted to have 500,000/µl of platelets (thrombocytes) by the use of the PPP.
(§2) Four hundred and forty-five (445)µl of the thus adjusted PRP were introduced into a cuvette, warmed to 37° C for 5 minutes, incorporated with 5µl of a solution of each of the test compounds, further warmed for two minutes and then incorporated with 50µl of collagen (10µg/ml) or 50µl of arachidonic acid (350µM) thereby to induce platelet aggregation. The platelet aggregation was measured in accordance with the Born's nephelometry by the use of an Aggregometer produced by Sysmex Co.

[4] = test system: arachidonic acid aggregation; experiment: Inhibitory actions on blood platelet aggregation induced by arachidonic acid (Born's nephelometry, platelet rich plasma); format: cell-based; conditions: arachidonic acid (350µM), rabbit PRP; for inhibition at 3 µM / inhibition at 10 µM / inhibition at 30 µM: Oryctolagus cuniculus, Platelet, read-out: Inhibiting rate
Description: as §1, §2

[5] = test system: gastric mucous damage; experiment: Gastric mucous damage test in rats; format: in vivo; conditions: 10 mg/kg orally after fasting for 18 hours; male Wistar rats; stomachs observed 3.5 hours later
Description: Using, as test animals, male rats of Wistar strain each weighing approximately 160g, the compounds of Examples 6 and 40 as well as indomethacin were each orally administered to the rats at the dose indicated in the following Table after their fasting for 18 hours. Three and a half (3.5) hours later, the rats were dissected to remove the stomachs therefrom. 10ml of a 70% ethanol were injected into the stomachs to fix them, and the stomachs were cut and washed with water and then visually observed to find whether ulcers were formed therein.

SMILES: CC(C)OC(=O)C1CCn2c(-c3ccc(Cl)cc3)c(-c3ccc(Cl)cc3)c(C(=O)O)c21 (racemic) [Example 4, 5,6-bis(p-chlorophenyl)-1,2-dihydro-3H-pyrrolo[1,2-a]pyrrole-1-isopropyl carboxylate ester-7-carboxylic acid]
- inhibition in vivo at 30 mg/kg [1]: 31.2%
- Inhibition rate [2]: 56.4%

SMILES: O=C(Nc1ccccc1)C1CCn2c1cc(-c1ccc(Cl)cc1)c2-c1ccc(Cl)cc1 (racemic) [Example 7, N-phenyl-5,6-bis(p-chlorophenyl)-1,2-dihydro-3H-pyrrolo[1,2-a]pyrrole-1-carboxylic acid amide]
- inhibition at 10 µM [3]: 78%
- inhibition in vivo at 30 mg/kg [1]: 37.4%

SMILES: CCCCNC(=O)C1CCn2c1cc(-c1ccc(Cl)cc1)c2-c1ccc(Cl)cc1 (racemic) [Example 8, N-bytyl-5,6-bis(p-chlorophenyl)-1,2-dihydro-3H-pyrrolo[1,2-a]pyrrole-1-carboxylic acid amide]
- Inhibiting rate ([4]; final concentration 3 µM): 92.5%
- Inhibiting rate ([4]; final concentration 10 µM): 90.2%
- Inhibiting rate ([4]; final concentration 30 µM): 92.5%

SMILES: O=C(O)c1c(-c2ccc(F)cc2)c(-c2ccc(F)cc2)n2c1C(C(=O)O)CC2 (racemic) [Example 17]
- inhibition in vivo at 30 mg/kg [1]: 42.9%
- Inhibition rate [2]: 78.4%

SMILES: CC(C)OC(=O)C1CCn2c(-c3ccc(F)cc3)c(-c3ccc(F)cc3)c(C(=O)O)c21 (racemic) [Example 25]
- inhibition in vivo at 30 mg/kg [1]: 30.1%
- Inhibition rate [2]: 49.1%

SMILES: Cc1ccc(-c2cc3n(c2-c2ccc(C)cc2)CCC3C(=O)O)cc1 (racemic) [Example 37]
- inhibition at 30 µM [3]: 53.7%
- inhibition in vivo at 15 mg/kg [1]: 27.8%
- Inhibition rate [2]: 45.4%

SMILES: O=C(O)C1CCn2c1cc(-c1ccc(F)cc1)c2-c1ccc(F)cc1 (racemic) [Example 38]
- inhibition in vivo at 30 mg/kg [1]: 47.9%

SMILES: COc1ccc(-c2cc3n(c2-c2ccc(OC)cc2)CCC3C(=O)O)cc1 (racemic) [Example 39]
- inhibition at 30 µM [3]: 61.7%
- inhibition in vivo at 15 mg/kg [1]: 34.7%

SMILES: COc1ccc(-c2c(-c3ccc(Cl)cc3)cc3n2CCC3C(=O)O)cc1 (racemic) [Example 40]
- inhibition at 30 µM [3]: 63.8%
- inhibition in vivo at 30 mg/kg [1]: 48.2%
- Inhibition rate [2]: 87.3%

SMILES: O=C(Nc1ccc(Cl)cc1)C1CCn2c1cc(-c1ccc(Cl)cc1)c2-c1ccc(Cl)cc1 (racemic) [Example 41]
- inhibition at 3 µM ([4]; final concentration 3 µM): 83.4%
- inhibition at 10 µM ([4]; final concentration 10 µM): 88.7%
- inhibition at 30 µM ([4]; final concentration 30 µM): 89.4%

SMILES: O=C(Nc1ccccn1)C1CCn2c1cc(-c1ccc(Cl)cc1)c2-c1ccc(Cl)cc1 (racemic) [Example 46]
- inhibition at 10 µM [3]: 64%
- inhibition in vivo at 30 mg/kg [1]: 39.4%

SMILES: O=C(NCc1ccccc1)C1CCn2c1cc(-c1ccc(Cl)cc1)c2-c1ccc(Cl)cc1 (racemic) [Example 48]
- inhibition at 3 µM ([4]; final concentration 3 µM): 14.3%
- inhibition at 10 µM ([4]; final concentration 10 µM): 86.5%
- inhibition at 30 µM ([4]; final concentration 30 µM): 91%

SMILES: O=C(NC1CCCCC1)C1CCn2c1cc(-c1ccc(Cl)cc1)c2-c1ccc(Cl)cc1 (racemic) [Example 54]
- inhibition at 10 µM [3]: 79.5%
- inhibition in vivo at 30 mg/kg [1]: 40.2%
- inhibition at 3 µM ([4]; final concentration 3 µM): 93.5%
- inhibition at 10 µM ([4]; final concentration 10 µM): 93.5%
- inhibition at 30 µM ([4]; final concentration 30 µM): 91.9%

SMILES: O=C(NCCCN1CCOCC1)C1CCn2c1cc(-c1ccc(Cl)cc1)c2-c1ccc(Cl)cc1 (racemic) [Example 57]
- inhibition at 10 µM [3]: 89.6%
- inhibition in vivo at 30 mg/kg [1]: 31.9%

SMILES: CN1CCN(NC(=O)C2CCn3c2cc(-c2ccc(Cl)cc2)c3-c2ccc(Cl)cc2)CC1 (racemic) [Example 59]
- inhibition at 10 µM [3]: 83.4%
- inhibition in vivo at 30 mg/kg [1]: 30.5%

SMILES: O=C(C1CCn2c1cc(-c1ccc(Cl)cc1)c2-c1ccc(Cl)cc1)N1CCOCC1 (racemic) [Example 61]
- inhibition at 3 µM ([4]; final concentration 3 µM): 10.1%
- inhibition at 10 µM ([4]; final concentration 10 µM): 89.4%
- inhibition at 30 µM ([4]; final concentration 30 µM): 91.4%

SMILES: O=C(O)c1c(-c2ccc(Cl)cc2)c(-c2ccc(Cl)cc2)n2c1C(C(=O)O)CC2 (stereo not drawn) [Example 3, 5,6-bis(p-chlorophenyl)-1,2-dihydro-3H-pyrrolo[1,2-a]-pyrrole-1,7-dicarboxylic acid]
- inhibition in vivo at 30 mg/kg [1]: 44.7%
- Inhibition rate [2]: 71.5%

SMILES: O=C(O)C1CCn2c1cc(-c1ccc(Cl)cc1)c2-c1ccc(Cl)cc1 (stereo not drawn) [Example 6, 5,6-bis(p-chlorophenyl)-1,2-dihydro-3H-pyrrolo[1,2-a]pyrrole-1-carboxylic acid]
- inhibition in vivo at 30 mg/kg [1]: 52.3%
- Inhibition rate [2]: 81.3%

SMILES: COc1ccc2c(c1)c(CC(=O)O)c(C)n2C(=O)c1ccc(Cl)cc1 [Indomethacin]
- Ulcer formation [5]: 7/7
